{"source": "patent US5601992A", "about": "“Peptide library formats and methods relating thereto” (Bunsen Rush Laboratories, Inc., priority 1994, dated 1997)", "key": {"melanophore cells": {"tested_on": "melanophore cells", "assay": "Pigment dispersion assay with a-MSH- and control-peptide-coated beads on a dish plated with melanophore cells", "type": "cell-based", "conditions": "TFA-treated beads on agarose gel with 20 nM melantonin; ten and 30 minutes after placement", "protocol": "a-MSH and its congener peptide (cp) were screened using a culture dish plated with melanophore cells. Melanophores were maintained in cell culture as previously described (A. Daniolos, et al., Pigment Cell Res. 3, 38 (1990); M. N. Potenza, M. R. Lerner, Pigment Cell Res. 4, 186 (1991)). Four million cells were seeded into a 100 mm tissue culture plate (actual internal diameter was 85 mm) in 20 mL of frog fibroblast conditioned media and incubated at 27° C. for 72 h. For an experiment, the media was removed from the dish and replaced with 9 mL of 0.9% Sea Plaque Agarose (FMC Corporation) prepared in fibroblast conditioned media containing 20 nM melantonin. The plate was then placed in the dark for thirty min, after which beads coated with a-MSH or the cp, were sprinkled on the agarose bed and the pigment dispersion response was monitored by photography."}, "murine bombesin receptor": {"molecular_target": "T1, murine bombesin receptor (Mus musculus, UniProt P21729)", "T1 construct": "expressed in transfected cells; host or cells: melanophores (frog; cultured as in Potenza & Lerner), transfected by electroporation with pJG3.6BR", "T1 sequence (P21729 whole entry)": "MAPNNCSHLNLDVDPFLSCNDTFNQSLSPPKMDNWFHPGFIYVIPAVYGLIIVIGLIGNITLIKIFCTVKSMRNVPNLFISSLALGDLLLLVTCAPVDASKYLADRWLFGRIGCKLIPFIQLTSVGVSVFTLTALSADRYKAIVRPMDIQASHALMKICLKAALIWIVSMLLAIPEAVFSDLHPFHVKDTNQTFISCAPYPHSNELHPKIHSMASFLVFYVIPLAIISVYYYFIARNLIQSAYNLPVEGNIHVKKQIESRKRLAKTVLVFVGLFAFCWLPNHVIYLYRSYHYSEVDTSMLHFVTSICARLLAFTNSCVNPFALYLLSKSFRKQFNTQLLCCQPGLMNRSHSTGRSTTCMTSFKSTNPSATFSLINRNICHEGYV", "assay": "Screening of bead-released peptides (MPL) on agarose-overlaid melanophores expressing the bombesin receptor; pigment dispersion", "type": "cell-based", "conditions": "TFA-gas-cleaved beads on agarose with 2 nM melantonin", "protocol": "Melanophore cells (either transfected or non-transfected and as described in the above-identified patent application) were seeded (4×10^6)into 100 mm tissue culture plate (Falcon, N.J.). For transfected cells, the 100 mm tissue culture dishes were pre-coated with Cell-Tak (Collaborative Research, Inc., Massachusetts) at a concentration of […]. Media and conditions unless otherwise stated, were as described in the above-identified patent application. For wild type cells, no media changes are necessary and the cells can be used as soon as 24 hours after plating. For transfected cells, after the cells have attached to the surface (2-3 h), the media was removed and replaced with 20 ml of frog fibroblast conditioned media which is based on 70% L-15 media (Sigma) with 20% fetal bovine serum supplemented with L-Glutamine and Penicillin Streptomycin (Gibco). The cells were incubated at 27° C. for 12-72 h. Then 12-24 before the experiment, the media was removed and the cells were washed gently with 1×10 ml 70% EX-CELL 320 (JRH Biosciences, Kansas; 70% part A 29% water and 1% part B, hereinafter EX-CELL). […]\nThe bombesin MPL was screened for agonists using melanophore cells expressing the bombesin receptor. […] Pigment dispersion induced by peptide analogues were monitored by video image subtraction (McClintock, T., et al., Anal. Biochem. 209:298-305 (1993)). […]"}}, "note": "Where no end group is shown, it is not given here."}
{"substance": "Ser-Lys-Glu-Arg-His-Ser-Trp-Tyr-NH2 (SKERHSWY-NH2) [cp, negative control peptide]", "values": [{"measurement": "pigment dispersion response", "setting": "melanophore cells", "result": "lack of a pigment dispersion response"}]}
{"substance": "litorin", "values": [{"measurement": "pigment dispersion response of recombinant melanophores to peptide released from bead (agonist activity)", "setting": "murine bombesin receptor", "result": "biological activity of the free peptide released from (but still coated on) the bead was confirmed"}]}
